The assay addresses Maltase-glucoamylase (Homo sapiens, UniProt O43451). The assay is described as follows: Inhibition of alpha glucosidase.
Chain of Maltase-glucoamylase (O43451 whole entry): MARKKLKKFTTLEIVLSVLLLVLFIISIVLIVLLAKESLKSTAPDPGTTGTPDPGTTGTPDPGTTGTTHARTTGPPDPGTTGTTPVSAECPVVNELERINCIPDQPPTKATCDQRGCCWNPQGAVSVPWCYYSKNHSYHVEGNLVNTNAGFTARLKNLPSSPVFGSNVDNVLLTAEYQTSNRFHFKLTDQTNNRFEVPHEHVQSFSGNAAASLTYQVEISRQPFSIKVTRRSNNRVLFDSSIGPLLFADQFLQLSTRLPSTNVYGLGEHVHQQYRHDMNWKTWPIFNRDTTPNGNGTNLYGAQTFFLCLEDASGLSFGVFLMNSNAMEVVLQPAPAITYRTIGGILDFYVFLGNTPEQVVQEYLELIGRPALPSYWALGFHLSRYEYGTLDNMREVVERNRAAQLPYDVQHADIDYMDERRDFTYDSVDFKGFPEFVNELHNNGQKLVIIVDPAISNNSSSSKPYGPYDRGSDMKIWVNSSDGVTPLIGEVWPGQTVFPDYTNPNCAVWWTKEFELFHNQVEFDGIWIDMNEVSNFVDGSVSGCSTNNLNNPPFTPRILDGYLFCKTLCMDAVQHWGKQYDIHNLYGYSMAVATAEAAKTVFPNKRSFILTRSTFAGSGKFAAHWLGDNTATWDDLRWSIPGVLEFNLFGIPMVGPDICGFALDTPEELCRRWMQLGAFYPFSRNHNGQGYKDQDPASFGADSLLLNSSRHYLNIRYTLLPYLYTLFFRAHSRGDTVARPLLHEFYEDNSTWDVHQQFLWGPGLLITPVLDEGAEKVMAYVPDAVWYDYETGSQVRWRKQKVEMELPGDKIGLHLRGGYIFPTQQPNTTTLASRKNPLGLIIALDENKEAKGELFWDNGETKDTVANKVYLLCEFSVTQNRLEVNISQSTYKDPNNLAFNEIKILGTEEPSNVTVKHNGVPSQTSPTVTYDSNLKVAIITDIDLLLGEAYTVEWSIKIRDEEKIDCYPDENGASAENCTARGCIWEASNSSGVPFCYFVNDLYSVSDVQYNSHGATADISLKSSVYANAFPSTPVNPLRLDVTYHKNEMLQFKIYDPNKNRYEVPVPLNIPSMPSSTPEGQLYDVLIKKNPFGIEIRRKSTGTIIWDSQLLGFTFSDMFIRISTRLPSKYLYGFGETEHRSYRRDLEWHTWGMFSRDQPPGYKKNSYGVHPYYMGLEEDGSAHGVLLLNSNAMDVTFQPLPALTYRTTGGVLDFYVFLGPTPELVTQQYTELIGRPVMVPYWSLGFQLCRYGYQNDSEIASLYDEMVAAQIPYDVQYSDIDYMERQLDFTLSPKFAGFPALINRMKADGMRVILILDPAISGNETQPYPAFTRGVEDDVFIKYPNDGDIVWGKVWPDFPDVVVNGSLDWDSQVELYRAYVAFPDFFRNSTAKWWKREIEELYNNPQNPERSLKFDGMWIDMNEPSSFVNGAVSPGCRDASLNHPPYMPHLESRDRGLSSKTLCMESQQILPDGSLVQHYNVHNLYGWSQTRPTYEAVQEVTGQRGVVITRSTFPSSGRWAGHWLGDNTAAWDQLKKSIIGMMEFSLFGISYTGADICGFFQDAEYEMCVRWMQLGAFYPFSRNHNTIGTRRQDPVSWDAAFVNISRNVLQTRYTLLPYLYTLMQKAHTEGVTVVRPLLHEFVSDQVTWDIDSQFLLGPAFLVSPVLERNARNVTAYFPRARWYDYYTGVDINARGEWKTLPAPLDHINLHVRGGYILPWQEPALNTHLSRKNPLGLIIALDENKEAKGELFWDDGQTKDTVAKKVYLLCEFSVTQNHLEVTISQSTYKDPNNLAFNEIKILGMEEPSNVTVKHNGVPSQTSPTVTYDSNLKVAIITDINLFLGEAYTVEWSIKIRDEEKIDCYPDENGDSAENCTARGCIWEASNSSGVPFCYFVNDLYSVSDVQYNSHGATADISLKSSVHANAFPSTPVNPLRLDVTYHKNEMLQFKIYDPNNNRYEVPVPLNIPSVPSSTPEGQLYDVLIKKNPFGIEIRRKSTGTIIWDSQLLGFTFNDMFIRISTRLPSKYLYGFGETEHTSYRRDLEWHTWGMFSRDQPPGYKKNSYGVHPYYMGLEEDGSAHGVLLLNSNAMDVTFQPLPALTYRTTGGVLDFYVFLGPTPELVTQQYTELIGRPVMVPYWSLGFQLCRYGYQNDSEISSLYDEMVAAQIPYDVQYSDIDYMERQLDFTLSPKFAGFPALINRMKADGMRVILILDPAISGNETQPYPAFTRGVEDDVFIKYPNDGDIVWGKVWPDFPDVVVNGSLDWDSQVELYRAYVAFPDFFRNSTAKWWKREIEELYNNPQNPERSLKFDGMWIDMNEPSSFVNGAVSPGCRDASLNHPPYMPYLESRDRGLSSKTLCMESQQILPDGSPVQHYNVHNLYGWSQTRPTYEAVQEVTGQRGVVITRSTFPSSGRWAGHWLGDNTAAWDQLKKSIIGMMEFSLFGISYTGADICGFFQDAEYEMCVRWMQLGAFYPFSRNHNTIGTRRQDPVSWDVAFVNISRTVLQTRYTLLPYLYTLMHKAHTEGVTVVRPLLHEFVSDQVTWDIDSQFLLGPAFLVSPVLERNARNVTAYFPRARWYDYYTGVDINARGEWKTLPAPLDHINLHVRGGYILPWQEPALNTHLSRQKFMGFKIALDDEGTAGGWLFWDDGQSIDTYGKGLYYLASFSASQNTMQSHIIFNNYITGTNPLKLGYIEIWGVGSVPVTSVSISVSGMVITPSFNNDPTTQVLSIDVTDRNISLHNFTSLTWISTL
For `C=C1CC[C@@H]2[C@](C)(CO)[C@H](O)CC[C@@]2(C)[C@@H]1/C=C/C1=CC(=C/C=C/c2ccccc2)/OC1=O` [3-(2-((1R,4aS,5R,6R,8aR)-6-hydroxy-5-(hydroxymethyl)-5,8a-dimethyl-2-methylene-decahydronaphthalen-1-yl)vinyl)-5-(3-phenylallylidene)furan-2(5H)-one], the IC50 was determined as 58 µM.
Under `C=C1CC[C@@H]2[C@](C)(CO)[C@H](O)CC[C@@]2(C)[C@@H]1/C=C/C1=CC(=C/CCC)/OC1=O` [5-butylidene-3-(2-((1R,4aS,5R,6R,8aR)-6-hydroxy-5-(hydroxymethyl)-5,8a-dimethyl-2-methylene-decahydronaphthalen-1-yl)vinyl)furan-2(5H)-one] stands 110 µM; under `C[C@]1(CO)[C@H]2CC[C@@]3(CO3)[C@@H](/C=C/C3=CC(=C/C=C/c4ccccc4)/OC3=O)[C@]2(C)CC[C@H]1O` [(5Z)-3-[(E)-2-[(1S,2S,4aS,5R,6R,8aR)-6-hydroxy-5-(hydroxymethyl)-5,8a-dimethyl-octahydro-1H-spiro[naphthalene-2,2'-oxirane]-1-yl]ethenyl]-5-[(2E)-3-phenylprop-2-en-1-ylidene]-2,5-dihydrofuran-2-one], 101 µM.
Next, `COc1ccc(/C=C2C=C(/C=C/[C@@H]3[C@@]4(CC[C@@H]5[C@](C)(CO)[C@H](O)CC[C@]53C)CO4)C(=O)O/2)cc1` [(5Z)-3-[(E)-2-[(1S,2S,4aS,5R,6R,8aR)-6-hydroxy-5-(hydroxymethyl)-5,8a-dimethyl-octahydro-1H-spiro[naphthalene-2,2'-oxirane]-1-yl]ethenyl]-5-[(4-methoxyphenyl)methylidene]-2,5-dihydrofuran-2-one]: 120 µM; `C=C1CC[C@@H]2[C@]3(C)COC(c4cccc(Br)c4)O[C@@H]3CC[C@@]2(C)[C@@H]1C/C=C1/C(=O)OC[C@H]1O` (stereo partly drawn) [(S)-3-(2-((4aR,6aS,7R,10aS,10bR)-3-(3-bromophenyl)-6a,10b-dimethyl-8-methylene-decahydro-1H-naphtho[2,1-d][1,3]dioxin-7-yl)ethylidene)-4-hydroxy-dihydrofuran-2(3H)-one]: 100 µM.
Under `C=C1CC[C@@H]2[C@]3(C)COC(c4ccccc4)O[C@@H]3CC[C@@]2(C)[C@@H]1C/C=C1/C(=O)OC[C@H]1O` (stereo partly drawn) [(S)-3-(2-((4aR,6aS,7R,10aS,10bR)-6a,10b-dimethyl-8-methylene-3-phenyl-decahydro-1H-naphtho[2,1-d][1,3]dioxin-7-yl)ethylidene)-4-hydroxy-dihydrofuran-2(3H)-one] stands 101 µM.

Values taken from BindingDB's records for doi:10.1016/j.bmcl.2006.02.011 (Zhengzhou University, 2006).
